The text below walks through data of ChEMBL document CHEMBL1122101, “Synthesis and tissue distribution study of iodine-labeled benzyl- and xylylamines” (J Med Chem, 1982).

Data set [1] relates to Rattus norvegicus. Kind of data set: Evaluated for biodistribution in rat lung after 2 min of administration. The conditions noted are these: in vivo. In kind it is ADME, organism-based.
The subject of data set [2] is Rattus norvegicus. Kind of data set: Evaluated for biodistribution in rat liver after 6 min of administration. In kind it is ADME, organism-based. The conditions noted are these: in vivo, 0.1 h.
Data set [3] has as its system Rattus norvegicus. Kind of data set: Evaluated for biodistribution in rat lung after 6 min of administration. The settings on record: in vivo, 0.1 h. In kind it is ADME, organism-based.
The subject of data set [4] is Rattus norvegicus. Description: Evaluated for biodistribution in rat liver after 1 min of administration. The settings on record: in vivo. The data set is classed as ADME, organism-based.
A short description of data set [5]: Evaluated for the carrier level on brain uptake at 0.4 mg/kg dose in rat. The settings on record: in vivo. The data set is classed as ADME, organism-based. The arrangement: dose 0.4 mg/kg.
The subject of data set [6] is Rattus norvegicus. Description: Evaluated for biodistribution in rat kidney after 6 min of administration. The data set is classed as ADME, organism-based. The settings on record: in vivo, 0.1 h.
Data set [7] concerns Rattus norvegicus. Description: Evaluated for biodistribution in rat heart after 6 min of administration. In kind it is ADME, organism-based. The settings on record: in vivo, 0.1 h.
Data set [8] deals with Rattus norvegicus. Description: Evaluated for biodistribution in rat heart after 2 min of administration. The data set is classed as ADME, organism-based. The conditions noted are these: in vivo.
For data set [9], the system named is Rattus norvegicus. Kind of data set: Evaluated for biodistribution in rat brain after 6 min of administration. The conditions noted are these: in vivo, 0.1 h. The data set is classed as ADME, organism-based.
For data set [10], the system named is Rattus norvegicus. Kind of data set: Evaluated for biodistribution in rat blood after 1 min of administration. The data set is classed as ADME, organism-based. The settings on record: in vivo.
A short description of data set [11]: Evaluated for the carrier level on brain uptake at 40 mg/kg dose in rat. The arrangement: dose 40 mg/kg. The conditions noted are these: in vivo. In kind it is ADME, organism-based.
For data set [12], the system named is Rattus norvegicus. Description: Evaluated for biodistribution in rat brain after 1 min of administration. The settings on record: in vivo. In kind it is ADME, organism-based.
The test system of data set [13] is Rattus norvegicus. Description: Evaluated for biodistribution in rat blood after 6 min of administration. The conditions noted are these: in vivo, 0.1 h. In kind it is ADME, organism-based.
For data set [14], the system named is Rattus norvegicus. Description: Evaluated for biodistribution in rat thyroid after 6 min of administration. In kind it is ADME, organism-based, Thyroid gland. The conditions noted are these: in vivo, 0.1 h.
The test system of data set [15] is Rattus norvegicus. Description: Evaluated for biodistribution in rat lung after 1 min of administration. In kind it is ADME, organism-based. The settings on record: in vivo.
Data set [16] relates to Rattus norvegicus. Description: Evaluated for biodistribution in rat thyroid after 2 min of administration. The conditions noted are these: in vivo. The data set is classed as ADME, organism-based, Thyroid gland.
Data set [17] deals with Rattus norvegicus. Description: Evaluated for biodistribution in rat liver after 2 min of administration. The data set is classed as ADME, organism-based. The settings on record: in vivo.
The nature of data set [18]: Evaluated for the carrier level on brain uptake at 4 mg/kg dose in rat. The data set is classed as ADME, organism-based. The arrangement: dose 4 mg/kg. The conditions noted are these: in vivo.
The subject of data set [19] is Rattus norvegicus. Description: Evaluated for biodistribution in rat kidney after 1 min of administration. The data set is classed as ADME, organism-based. The conditions noted are these: in vivo.
Data set [20] deals with Rattus norvegicus. Kind of data set: Evaluated for biodistribution in rat thyroid after 1 min of administration. In kind it is ADME, organism-based, Thyroid gland. The settings on record: in vivo.
Data set [21] is described as follows: Evaluated for the carrier level on brain uptake at 0.04 mg/kg dose in rat. The arrangement: dose 0.04 mg/kg. The data set is classed as ADME, organism-based. The conditions noted are these: in vivo.
The subject of data set [22] is Rattus norvegicus. Description: Evaluated for biodistribution in rat brain after 2 min of administration. The settings on record: in vivo. In kind it is ADME, organism-based.
Data set [23] deals with Rattus norvegicus. Kind of data set: Evaluated for biodistribution in rat blood after 2 min of administration. The data set is classed as ADME, organism-based. The settings on record: in vivo.
The subject of data set [24] is Rattus norvegicus. Description: Evaluated for biodistribution in rat kidney after 2 min of administration. In kind it is ADME, organism-based. The conditions noted are these: in vivo.
Data set [25] relates to Rattus norvegicus. Kind of data set: Evaluated for biodistribution in rat heart after 1 min of administration. The data set is classed as ADME, organism-based. The conditions noted are these: in vivo.

Molecules are shown by their SMILES.

Regarding `CN(C)Cc1ccc(I)c(CN(C)C)c1`, the Biodistribution with Rattus norvegicus [1] worked out at 22.63%; in the data set on Rattus norvegicus [2], 7.81%; with Rattus norvegicus [3], 1.96%; in the data set on Rattus norvegicus [4], 18.31%; with Rattus norvegicus [6], 2.98%; with Rattus norvegicus [7] it was 0.19%. In addition, the Biodistribution is given as 2.76% with Rattus norvegicus [8]; 1.51% in the data set on Rattus norvegicus [9]; 0.83% in the data set with Rattus norvegicus [10]; 2.36% with Rattus norvegicus [12]; 0.42% with Rattus norvegicus [13]; 0.14% in the data set with Rattus norvegicus [14]. The Biodistribution worked out at 4.36% in the data set with Rattus norvegicus [15]; 0.28% with Rattus norvegicus [16]; 9.52% in the data set with Rattus norvegicus [17]; 6.19% in the data set with Rattus norvegicus [19]; 0.11% in the data set with Rattus norvegicus [20]; 2.4% with Rattus norvegicus [22]. For the same compound, the Biodistribution in the data set with Rattus norvegicus [23] turned out to be 3.52%; in the data set on Rattus norvegicus [24], 7.69%; with Rattus norvegicus [25] it was 0.44%. For the same compound, the Brain uptake turned out to be 3.03% in [5], 2.43% in [11], 2.09% in [18] and 2.67% in data set [21].

Take `CN(C)Cc1ccccc1I`: the Biodistribution in the data set on Rattus norvegicus [1] worked out at 2.9%; with Rattus norvegicus [2], 0.45%; in the data set with Rattus norvegicus [3] it was 0.04%; in the data set with Rattus norvegicus [4], 1.92%; in the data set on Rattus norvegicus [6], 0.34%; in the data set with Rattus norvegicus [7], 0.014%. Moreover, the Biodistribution with Rattus norvegicus [8] is listed as 0.59%; in the data set with Rattus norvegicus [9], 0.022%; in the data set with Rattus norvegicus [10] it was 1.35%; with Rattus norvegicus [12], 0.07%; in the data set on Rattus norvegicus [13] it was 0.35%; in the data set on Rattus norvegicus [14], 0.035%. Also, the Biodistribution stood at 0.19% in the data set with Rattus norvegicus [15]; 0.11% in the data set with Rattus norvegicus [16]; 11.81% in the data set on Rattus norvegicus [17]; 1.03% with Rattus norvegicus [19]; 0.01% in the data set with Rattus norvegicus [20]; 2.42% with Rattus norvegicus [22]. Also, the Biodistribution was found to be 7.01% in the data set on Rattus norvegicus [23], 10.12% in the data set with Rattus norvegicus [24] and 0.06% in the data set with Rattus norvegicus [25].

With `Ic1ccc(CN2CCCCC2)cc1CN1CCCCC1`, the Biodistribution worked out at 26.54% in the data set with Rattus norvegicus [1]; 9.2% in the data set on Rattus norvegicus [2]; 1.75% with Rattus norvegicus [3]; 13.51% with Rattus norvegicus [4]; 1.97% with Rattus norvegicus [6]; 0.18% in the data set on Rattus norvegicus [7]. Moreover, the Biodistribution in the data set on Rattus norvegicus [8] came to 3.19%; with Rattus norvegicus [9], 0.7%; in the data set on Rattus norvegicus [10], 1.6%; in the data set with Rattus norvegicus [12] it was 1.47%; in the data set with Rattus norvegicus [13], 0.77%; in the data set with Rattus norvegicus [14], 0.11%. Also, the Biodistribution in the data set on Rattus norvegicus [15] was determined as 6.65%; in the data set with Rattus norvegicus [16], 0.22%; in the data set with Rattus norvegicus [17] it was 12.5%; with Rattus norvegicus [19] it was 7.75%; in the data set with Rattus norvegicus [20], 0.15%; in the data set on Rattus norvegicus [22], 1.7%. The Biodistribution in the data set on Rattus norvegicus [23] came to 4.11%; in the data set on Rattus norvegicus [24], 7.33%; in the data set with Rattus norvegicus [25], 0.51%.

With `CC(C)NCc1ccc(I)c(CNC(C)C)c1`, the Biodistribution with Rattus norvegicus [1] turned out to be 31.98%; with Rattus norvegicus [2], 5.17%; with Rattus norvegicus [3], 8.71%; in the data set on Rattus norvegicus [4], 8.38%; in the data set with Rattus norvegicus [6], 3.4%; in the data set on Rattus norvegicus [7], 0.83%. In addition, the Biodistribution in the data set on Rattus norvegicus [8] is recorded as 2.18%; in the data set with Rattus norvegicus [9], 0.59%; in the data set on Rattus norvegicus [10], 1.76%; in the data set on Rattus norvegicus [12] it was 0.64%; in the data set with Rattus norvegicus [13] it was 1.33%; in the data set on Rattus norvegicus [14], 0.45%. The Biodistribution was found to be 13.02% in the data set on Rattus norvegicus [15]; 0.18% with Rattus norvegicus [16]; 10.22% in the data set on Rattus norvegicus [17]; 6.71% with Rattus norvegicus [19]; 0.27% in the data set with Rattus norvegicus [20]; 0.62% in the data set with Rattus norvegicus [22]. Further, the Biodistribution in the data set with Rattus norvegicus [23] is 6.42%; in the data set with Rattus norvegicus [24] it was 6.93%; in the data set on Rattus norvegicus [25], 1.99%.
